Data on 1 substance can be found in patent US8937038B2, “Composition containing peptide ligand that bonds with CXCR2 for treating infective and inflammatory diseases” (priority 2010, dated 2015).

In this experiment the test system is CLP mice. As to the kind of experiment: Apoptosis of immune cells (TUNEL) in CLP mice. Type of experiment: in vivo, mouse. As for the experimental part: First, a tissue embedded in paraffin was deparaffinized using a typical histological protocol, and performed digoxigenin-dUTP nick end labeling (TUNEL) analysis. Sections were permeated into the Triton X-100 at 4° C. for 2 minutes, and the sections were flooded in terminal deoxynucleotidyl transferase (TdT) and a TUNEL reagent at 37° C. for 60 minutes. A percentage of apoptotic cells (TUNEL-positive cells) was determined by counting 500 splenocytes under an optical microscope. Also, the tissue embedded in paraffin was deparaffinized using a typical histological protocol, and immunohistochemical analysis was performed on the microtomed sections of caspase-3 (Wang J. et al. 2001 Proc. Natl. Acad. Sci. USA 98:4038-43).
The defunctionalization of the major internal organs such as lungs was associated with the mortality after sepsis. A morphological change was observed by performing hematoxylin and eosin staining. […] Liver tissues from the CLP mice were necrotized to a higher extent, but the necrosis of the liver tissues was decreased by administration of Ac-PGP. […] Most of the apoptosis in the thymus or spleen of a CLP mouse was caused in the cortex of the thymus or spleen in which immature cells were populated. When compared with those of the sham or Ac-PGP mice, an important morphological change in apoptotic cells of the CLP mice is that small compact pyknosis containing multiple nuclear fragments were present in apoptotic lymphocytes (FIG. 7). […] The apoptosis of immune cells was also accompanied with sepsis.
The apoptosis of immune cells is associated with the mortality on sepsis. Here, the CLP was proven to remarkably increase apoptosis of splenocytes (FIG. 22). […] Apoptosis of lymphocytes was induced by activation of some major caspases including caspase-3. Therefore, not only the effect of Ac-PGP on activation of caspase-3 but also the effect of CLP activation by caspase-3 were examined (FIG. 23).

Consider acetylated-Pro-Gly-Pro [Ac-PGP], for which, under “CLP mice, FIG. 8”, the “apoptosis of the immune cells in the spleen” value is “remarkably suppressed”. For the same substance, the “apoptosis of the immune cells in the thymus” value (CLP mice, FIG. 9) was “remarkably suppressed”. For the same substance, where the note is “CLP mice, FIG. 22”, the apoptosis of splenocytes entry was “remarkably suppressed the apoptosis of splenocytes”. Also, the “inhibitory effect of the apoptosis of splenocytes by Ac-PGP” value (IFN-γ-deficient CLP mice, FIG. 22) is on record as “remarkably relieved”.
